Results published in ChEMBL document CHEMBL1201862, “PubChem BioAssay data set” (2004).
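Each compound was tested at five concentrations against cells in 96-well plates for 48 hours. GI50: concentration for 50% inhibition of growth.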 Activity calls are given as the source filed them. Cut-off read from the data, not from the text of the source: active = GI50 up to about 1.1 µM and inactive = higher.

Experiments:
Experiment in all cases: NCI tumour cell line growth inhibition, 48 h
U-251 = system: U-251
ACHN = system: ACHN
A498 = system: A498
UACC-257 = system: UACC-257
SF-295 = system: SF-295
SF-539 = system: SF-539
786-0 = system: 786-0
UACC-62 = system: UACC-62
M19-MEL = system: M19-MEL
SK-MEL-5 = system: SK-MEL-5
KM-20L2 = system: KM-20L2
HCT-116 = system: HCT-116
SW-620 = system: SW-620
OVCAR-8 = system: OVCAR-8
SNB-19 = system: SNB-19
UO-31 = system: UO-31
NCI-H23 = system: NCI-H23
A549 = system: A549
SN12C = system: SN12C
CAKI-1 = system: CAKI-1
COLO 205 = system: COLO 205
RXF 631 = system: RXF 631
HL-60 = system: HL-60
RPMI-8226 = system: RPMI-8226
OVCAR-4 = system: OVCAR-4
K562 = system: K562
NCI-H522 = system: NCI-H522
DMS-114 = system: DMS-114
SK-MEL-28 = system: SK-MEL-28
HOP-92 = system: HOP-92
CCRF-CEM = system: CCRF-CEM
DMS-273 = system: DMS-273
EKVX = system: EKVX
NCI-H460 = system: NCI-H460
MOLT-4 = system: MOLT-4
SR = system: SR
HOP-62 = system: HOP-62
RXF 393 = system: RXF 393
TK-10 = system: TK-10
SK-OV-3 = system: SK-OV-3
DLD-1 = system: DLD-1
M14 = system: M14
SNB-75 = system: SNB-75
SF-268 = system: SF-268
LOX IMVI = system: LOX IMVI
SNB-78 = system: SNB-78
KM12 = system: KM12
OVCAR-3 = system: OVCAR-3
IGROV-1 = system: IGROV-1
SK-MEL-2 = system: SK-MEL-2
HT-29 = system: HT-29
XF498 = system: XF498
HCC 2998 = system: HCC 2998
HCT-15 = system: HCT-15
Malme-3M = system: Malme-3M
LXFL 529 = system: LXFL 529
OVCAR-5 = system: OVCAR-5
MDA-N = system: MDA-N
DU-145 = system: DU-145
MDA-MB-435 = system: MDA-MB-435
HOP-18 = system: HOP-18
NCI-H226 = system: NCI-H226
T47D = system: T47D
MDA-MB-231 = system: MDA-MB-231
Hs-578T = system: Hs-578T
MCF7 = system: MCF7
NCI/ADR-RES = system: NCI/ADR-RES
PC-3 = system: PC-3
BT-549 = system: BT-549

CCCC(Sc1ccccc1)P(=O)(c1ccccc1)c1ccccc1 (stereo not drawn)
GI50 (U-251): 23.5 µM (inactive) | GI50 (ACHN): 19.8 µM (inactive) | GI50 (A498): 28.3 µM (inactive) | GI50 (UACC-257): 35.1 µM (inactive) | GI50 (SF-295): 27.8 µM (inactive) | GI50 (SF-539): 35.1 µM (inactive) | GI50 (786-0): 37.7 µM (inactive) | GI50 (UACC-62): 15.1 µM (inactive) | GI50 (M19-MEL): 34.6 µM (inactive) | GI50 (SK-MEL-5): 25.4 µM (inactive) | GI50 (KM-20L2): > 100 µM (inactive) | GI50 (HCT-116): 31.3 µM (inactive) | GI50 (SW-620): 41.9 µM (inactive) | GI50 (OVCAR-8): 36.2 µM (inactive) | GI50 (SNB-19): > 100 µM (inactive) | GI50 (UO-31): > 100 µM (inactive) | GI50 (NCI-H23): 35.6 µM (inactive) | GI50 (A549): 28.8 µM (inactive) | GI50 (SN12C): 43.5 µM (inactive) | GI50 (CAKI-1): 42.3 µM (inactive) | GI50 (COLO 205): 31.4 µM (inactive) | GI50 (RXF 631): 30.1 µM (inactive) | GI50 (HL-60): 22.3 µM (inactive) | GI50 (RPMI-8226): 19 µM (inactive) | GI50 (OVCAR-4): 37.8 µM (inactive) | GI50 (K562): 29.9 µM (inactive) | GI50 (NCI-H522): 31.5 µM (inactive) | GI50 (DMS-114): 34.8 µM (inactive) | GI50 (SK-MEL-28): 42.1 µM (inactive) | GI50 (HOP-92): 21.8 µM (inactive) | GI50 (CCRF-CEM): 29.9 µM (inactive) | GI50 (DMS-273): 36.6 µM (inactive) | GI50 (EKVX): 24 µM (inactive) | GI50 (NCI-H460): 29.8 µM (inactive) | GI50 (MOLT-4): 20.6 µM (inactive) | GI50 (SR): 20.6 µM (inactive) | GI50 (HOP-62): 46.6 µM (inactive) | GI50 (RXF 393): 41.8 µM (inactive) | GI50 (TK-10): 40 µM (inactive) | GI50 (SK-OV-3): 22.7 µM (inactive) | GI50 (DLD-1): 19.6 µM (inactive) | GI50 (M14): 35.2 µM (inactive) | GI50 (SNB-75): 28.6 µM (inactive) | GI50 (SF-268): 32.5 µM (inactive) | GI50 (LOX IMVI): 35.6 µM (inactive) | GI50 (SNB-78): 37.6 µM (inactive) | GI50 (KM12): 38.7 µM (inactive) | GI50 (OVCAR-3): 41.1 µM (inactive)

COc1cc(/C=C(\NC(=O)c2ccccc2)c2nc3c(O)nc(S)nc3[nH]2)cc(OC)c1OC
GI50 (U-251): > 100 µM (inactive) | GI50 (ACHN): > 100 µM (inactive) | GI50 (SF-295): > 100 µM (inactive) | GI50 (SF-539): > 100 µM (inactive) | GI50 (786-0): > 100 µM (inactive) | GI50 (UACC-62): > 100 µM (inactive) | GI50 (M19-MEL): > 100 µM (inactive) | GI50 (IGROV-1): > 100 µM (inactive) | GI50 (SK-MEL-5): > 100 µM (inactive) | GI50 (KM-20L2): > 100 µM (inactive) | GI50 (SW-620): > 100 µM (inactive) | GI50 (OVCAR-8): > 100 µM (inactive) | GI50 (SNB-19): > 100 µM (inactive) | GI50 (UO-31): > 100 µM (inactive) | GI50 (SK-MEL-2): > 100 µM (inactive) | GI50 (NCI-H23): > 100 µM (inactive) | GI50 (A549): > 100 µM (inactive) | GI50 (SN12C): > 100 µM (inactive) | GI50 (CAKI-1): > 100 µM (inactive) | GI50 (COLO 205): > 100 µM (inactive) | GI50 (RXF 631): > 100 µM (inactive) | GI50 (HT-29): > 100 µM (inactive) | GI50 (XF498): > 100 µM (inactive) | GI50 (HCC 2998): > 100 µM (inactive) | GI50 (HL-60): > 100 µM (inactive) | GI50 (HCT-15): > 100 µM | GI50 (OVCAR-4): > 100 µM (inactive) | GI50 (K562): > 100 µM (inactive) | GI50 (NCI-H522): > 100 µM (inactive) | GI50 (DMS-114): > 100 µM (inactive) | GI50 (Malme-3M): > 100 µM (inactive) | GI50 (LXFL 529): > 100 µM (inactive) | GI50 (SK-MEL-28): > 100 µM (inactive) | GI50 (HOP-92): 59.3 µM (inactive) | GI50 (CCRF-CEM): > 100 µM (inactive) | GI50 (EKVX): > 100 µM (inactive) | GI50 (MOLT-4): > 100 µM (inactive) | GI50 (SR): > 100 µM (inactive) | GI50 (OVCAR-5): > 100 µM (inactive) | GI50 (RXF 393): > 100 µM (inactive) | GI50 (TK-10): > 100 µM (inactive) | GI50 (SK-OV-3): > 100 µM (inactive) | GI50 (DLD-1): > 100 µM (inactive) | GI50 (M14): > 100 µM (inactive) | GI50 (SF-268): > 100 µM (inactive) | GI50 (SNB-78): > 100 µM (inactive) | GI50 (KM12): > 100 µM (inactive) | GI50 (OVCAR-3): > 100 µM (inactive)

CN(N=O)C(=O)N[C@H]1C(O)O[C@H](CO)[C@@H](O)[C@@H]1O (stereo partly drawn)
GI50 (MDA-N): > 750 µM (inactive) | GI50 (U-251): 593 µM (inactive) | GI50 (DU-145): > 750 µM (inactive) | GI50 (ACHN): > 750 µM (inactive) | GI50 (A498): 593 µM (inactive) | GI50 (UACC-257): 600 µM (inactive) | GI50 (MDA-MB-435): 515 µM (inactive) | GI50 (SF-295): 589 µM (inactive) | GI50 (SF-539): 612 µM (inactive) | GI50 (786-0): 309 µM (inactive) | GI50 (HOP-18): 222 µM (inactive) | GI50 (UACC-62): 550 µM (inactive) | GI50 (M19-MEL): 475 µM (inactive) | GI50 (NCI-H226): 596 µM (inactive) | GI50 (IGROV-1): 618 µM (inactive) | GI50 (SK-MEL-5): 413 µM (inactive) | GI50 (T47D): 611 µM (inactive) | GI50 (KM-20L2): > 750 µM (inactive) | GI50 (MDA-MB-231): > 750 µM (inactive) | GI50 (HCT-116): 573 µM (inactive) | GI50 (SW-620): 511 µM (inactive) | GI50 (OVCAR-8): 617 µM (inactive) | GI50 (SNB-19): 565 µM (inactive) | GI50 (Hs-578T): > 750 µM (inactive) | GI50 (UO-31): 658 µM (inactive) | GI50 (SK-MEL-2): 647 µM (inactive) | GI50 (NCI-H23): 614 µM (inactive) | GI50 (A549): 571 µM (inactive) | GI50 (SN12C): 581 µM (inactive) | GI50 (CAKI-1): 429 µM (inactive) | GI50 (MCF7): 518 µM (inactive) | GI50 (COLO 205): 596 µM (inactive) | GI50 (HT-29): 618 µM (inactive) | GI50 (XF498): 557 µM (inactive) | GI50 (HCC 2998): 533 µM (inactive) | GI50 (HL-60): 499 µM (inactive) | GI50 (RPMI-8226): 565 µM (inactive) | GI50 (NCI/ADR-RES): 740 µM (inactive) | GI50 (HCT-15): 622 µM | GI50 (OVCAR-4): 590 µM (inactive) | GI50 (PC-3): > 750 µM (inactive) | GI50 (K562): 498 µM (inactive) | GI50 (NCI-H522): 578 µM (inactive) | GI50 (DMS-114): 504 µM (inactive) | GI50 (Malme-3M): 600 µM (inactive) | GI50 (LXFL 529): > 750 µM (inactive) | GI50 (SK-MEL-28): 611 µM (inactive) | GI50 (HOP-92): 548 µM (inactive) | GI50 (CCRF-CEM): 485 µM (inactive) | GI50 (DMS-273): 528 µM (inactive) | GI50 (EKVX): 643 µM (inactive) | GI50 (NCI-H460): 491 µM (inactive) | GI50 (MOLT-4): 558 µM (inactive) | GI50 (SR): 537 µM (inactive) | GI50 (HOP-62): 568 µM (inactive) | GI50 (OVCAR-5): 647 µM (inactive) | GI50 (RXF 393): 600 µM (inactive) | GI50 (TK-10): > 750 µM (inactive) | GI50 (SK-OV-3): 571 µM (inactive) | GI50 (DLD-1): 632 µM (inactive) | GI50 (M14): > 750 µM (inactive) | GI50 (SNB-75): 484 µM (inactive) | GI50 (BT-549): > 750 µM (inactive) | GI50 (SF-268): 608 µM (inactive) | GI50 (SNB-78): 545 µM (inactive) | GI50 (KM12): 625 µM (inactive) | GI50 (OVCAR-3): 653 µM (inactive)
